According to ChEMBL document CHEMBL3044833, “Anticonvulsant activity of 3,5-dimethylpyrazole derivatives in animal models” (Med Chem Res, 2011):
The source made the active and inactive calls. The rule behind the calls is not given here.

What was measured:
Mus musculus [1] = experiment: Anticonvulsant activity in Mus musculus Balb/c (mouse) assessed as inhibition of pentylenetetrazol-induced mortality at 150 to 200 mg/kg, ip pretreated 30 min before pentylenetetrazol challenge by pentylenetetrazol test; type: functional, organism-based
Mus musculus [2] = experiment: Toxicity in Mus musculus Balb/c (mouse) assessed as duration of spike-wave discharges at 150 mg/kg, ip measured for 2 hr by EEG recordings (reference value: 359.8 +/- 33.5 sec); type: organism-based; parameters: dose 150 mg/kg, route intraperitoneal; conditions: in vivo
Mus musculus [3] = experiment: Toxicity in Mus musculus Balb/c (mouse) assessed as duration of spike-wave discharges at 100 mg/kg, ip measured for 2 hr by EEG recordings (reference value: 359.8 +/- 33.5 sec); type: organism-based; parameters: dose 100 mg/kg, route intraperitoneal; conditions: in vivo
Mus musculus [4] = experiment: Anticonvulsant activity in Mus musculus Balb/c (mouse) assessed as increase in latency to seizure at 100 mg/kg, ip pretreated 30 min before pentylenetetrazol challenge by pentylenetetrazol test; type: functional, organism-based; parameters: dose 100 mg/kg
Mus musculus [5] = experiment: Anticonvulsant activity in Mus musculus Balb/c (mouse) assessed as decrease in severity of seizure at 100 mg/kg, ip pretreated 30 min before pentylenetetrazol challenge by pentylenetetrazol test; type: functional, organism-based; parameters: dose 100 mg/kg
Mus musculus [6] = experiment: Anticonvulsant activity in Mus musculus Balb/c (mouse) assessed as decrease in severity of seizure at 150 to 200 mg/kg, ip pretreated 30 min before pentylenetetrazol challenge by pentylenetetrazol test; type: functional, organism-based
Mus musculus [7] = experiment: Anticonvulsant activity in Mus musculus Balb/c (mouse) assessed as increase in latency to seizure at 150 to 200 mg/kg, ip pretreated 30 min before pentylenetetrazol challenge by pentylenetetrazol test; type: functional, organism-based
Mus musculus [8] = experiment: Anticonvulsant activity in Mus musculus Balb/c (mouse) assessed as inhibition of pentylenetetrazol-induced mortality at 100 mg/kg, ip pretreated 30 min before pentylenetetrazol challenge by pentylenetetrazol test; type: functional, organism-based; parameters: dose 100 mg/kg
Mus musculus [9] = experiment: Anticonvulsant activity in Mus musculus Balb/c (mouse) assessed as effect on severity of seizure at 150 to 200 mg/kg, ip pretreated 30 min before pentylenetetrazol challenge by pentylenetetrazol test; type: functional, organism-based
Mus musculus [10] = experiment: Anticonvulsant activity in Mus musculus Balb/c (mouse) assessed as effect on maximal electroshock-induced mortality rate 100 mg/kg, ip measured after 30 min; type: functional, organism-based; parameters: dose 100 mg/kg
Mus musculus [11] = experiment: Anticonvulsant activity in Mus musculus Balb/c (mouse) assessed as decrease in duration of tonic hind limb extension at 100 mg/kg, ip measured after 30 min by maximal electroshock seizure test; type: functional, organism-based; parameters: dose 100 mg/kg; conditions: Hindlimb
Mus musculus [12] = experiment: Anticonvulsant activity in Mus musculus Balb/c (mouse) assessed as effect on latency of tonic hind limb extension at 100 mg/kg, ip measured after 30 min by maximal electroshock seizure test; type: functional, organism-based; parameters: dose 100 mg/kg; conditions: Hindlimb

| Compound | inhibition (Mus musculus [1]) | Time (Mus musculus [2]) [s] | Time (Mus musculus [3]) [s] | Activity (Mus musculus [4]) | inhibition (Mus musculus [5]) | inhibition (Mus musculus [6]) | Activity (Mus musculus [7]) | inhibition (Mus musculus [8]) | Activity (Mus musculus [9]) | Activity (Mus musculus [10]) | inhibition (Mus musculus [11]) | Activity (Mus musculus [12]) |
| --- | --- | --- | --- | --- | --- | --- | --- | --- | --- | --- | --- | --- |
| Cc1nn(C(=O)c2c(Cl)cccc2Cl)c(C)c1NC(=O)c1c(Cl)cccc1Cl | Active | 337.5 | 300 | Active | Active | Active | Active | Active |  |  |  |  |
| Cc1nn(C(=O)c2ccc(Cl)cc2)c(C)c1NC(=O)c1ccc(Cl)cc1 |  |  |  | Active | Active |  |  | Active |  |  |  |  |
| Cc1n[nH]c(C)c1/N=C/c1ccccc1O |  |  |  | Active | Active |  |  | Active |  |  |  |  |
| Cc1n[nH]c(C)c1/N=C/c1ccc(O)cc1 |  |  |  | Active | Active |  |  | Active |  |  |  |  |
| COc1ccc(C(=O)Nc2c(C)nn(C(=O)c3ccc(OC)cc3)c2C)cc1 | inactive |  |  | Active | Active |  | Active | Active | inactive |  |  |  |
| Cc1n[nH]c(C)c1NC(=O)c1cccnc1 |  |  |  | Active | Active |  |  | Active |  |  |  |  |
| Cc1ccc(C(=O)Nc2c(C)nn(C(=O)c3ccc(C)cc3)c2C)cc1 |  |  |  | Active | Active |  |  | Active |  |  |  |  |
| Cc1n[nH]c(C)c1/N=C/c1c(Cl)cccc1Cl |  |  |  | Active | Active |  |  | Active |  | inactive | Active | inactive |
| Cc1n[nH]c(C)c1NC(=O)c1ccncc1 |  |  |  | Active | Active |  |  | Active |  |  |  |  |
| Cc1nn(C(=O)c2ccc(F)cc2)c(C)c1NC(=O)c1ccc(F)cc1 |  |  |  | Active | Active |  |  | Active |  | inactive | Active | inactive |
| CCC1(C)CC(=O)NC1=O (configuration not stated) |  |  |  | Active | Active |  |  | Active |  |  |  |  |
